# Test results published in article PMC10393279, “Can BioSAXS detect ultrastructural changes of antifungal compounds in Candida albicans?–an exploratory study” (Frontiers in Pharmacology, 2023).
# Where two headings read alike, the source gives them in different places. No end group written: not given here.
# Tests used:
# C. albicans [1] = experiment: microbe, parasite or virus in culture; format: cell-based, Candida albicans; conditions: broth microdilution, 30°C
# Description: In this project, we used a clinical isolate of C. albicans obtained from Tim Planche (St. George’s, University of London).
# Mueller-Hinton broth (MHb) (Merck, Life Science UK Limited, Dorset, UK) was prepared to concur with the manufacturer’s directions and supplemented with 2% glucose to grow C. albicans. Liquid cultures were incubated at 30°C for 18–20 h on a shaker, and culture on solid media was incubated for 18–24 h at 30°C.
# When it comes to determining the antimicrobial activity of antimicrobial peptides (AMPs) there are unfortunately many different approaches reported. Many AMPs are negatively affected by positively charged ions and other components of growth media, therefore Mueller-Hinton broth (MHb) is frequently used since it supports the growth of many organisms and seems to interfere little with the activity of most AMPs. The […] of Flucytosine and antifungal peptides were determined using a protocol (option E) of the highly cited publication by [Wiegand et al. (2008)] optimized for the work with antimicrobial peptides. This protocol uses MHb (0.2% beef extract, 1.75% casein hydrolysate). To adopt that media for the growth of yeast 2% glucose was added. For comparison, YPD complex medium (1% yeast extract, 2% peptone, 2% dextrose) is often used for the growth of yeast. Where this media provides the best activity for antimicrobial peptides the results should be carefully used when comparing MIC values to other antifungals measured in different growth media. A broth microdilution assay was applied using 6 × 10^5 CFU/mL at 30°C. MICs were determined by the unaided eye, as the concentration in which no growth was observed.
# erythrocytes = system: erythrocytes; parameters: method as in 3 sources, one per row (each row's own in cited_ref): ref Cerovsky et al., 2009 ||| ref Cao et al., 2012; Almaaytah and Albalas, 2014 ||| ref Hirai et al., 1981; conditions: cited from earlier work
# human erythrocytes = conditions: no method in this paper, ref Grimsey et al., 2020; cited from earlier work
# sheep erythrocytes = conditions: ref Andreu et al., 1992, Edlund et al., 1998; cited from earlier work
# C. albicans [2] = experiment: BioSAXS ultrastructural changes, principal component analysis of scattering curves; format: cell-based, Candida albicans; conditions: 2xMIC, 40 min
# Description: A detailed description of the sample preparation for BioSAXS, the BioSAXS measurement and consequently the data evaluation methods can be found in the open-source publication by [Von Gundlach et al. (2019)]. Briefly, an aliquot of an overnight culture of a clinical isolate of C. albicans was diluted in Mueller-Hinton broth (MHb) and incubated for 2.5 h at 30°C on a shaker (225 rpm) to achieve log phase growth. The C. albicans culture was adjusted to have 1.2 × 10^6 CFU/mL and aliquoted. The aliquots were then mixed with either sterile water or antifungal solution (2xMIC) to provide 6 × 10^5 CFU/mL aliquots. Those were further incubated for 40 min at 30°C at 225 rpm. All aliquots were then centrifuged at 10,000 rpm and washed 3 times in ml 0.1 M PIPES [piperazine-N,N′-bis(2-ethanesulfonic acid)] buffer, pH 7.0. After washing, the pellet was resuspended in 1 mL of 2.5% glutaraldehyde v/v in PIPES buffer and fixated for 1 h at room temperature at 225 rpm. Consequently, the samples were washed 3 times with PBS buffer and resuspended in 100 µL of PBS and stored at 5°C.
# The SAXS measurements were performed on the P12 BioSAXS beamline, EMBL (DESY, Hamburg), using a double crystal Si (111) monochromator. An energy of 10 keV with a 10^13 s^−1 photon flux was used. 30 μL of each sample was injected into the measuring chamber by an automatic sample robot (Arinax, BioSAXS), the focus of the X-ray beam was 0.2 × 0.12 mm. The scattering signal was recorded with a Pilatus 2 M detector (Dectris, Switzerland). For each sample, 20 measurements were made with 0.05 s exposure. Before and after each measurement the background was measured and automatically subtracted from the SAXS curves. Data analysis and evaluation were done using the open-source software SciXMiner (“Peptide Extension”) ([Mikut, 2010]; [Mikut et al., 2017]). To determine differences in the scattering curves between treated and untreated samples as well as between the different treatments a principal component analysis (PCA) was applied to the scattering curves. The data are measurements of about 100,000 cells that were measured 20 times to obtain the scattering curves. SAXS curves were averaged and the standard deviation was used as an error bar. The PCA analysis was carried out in the frequency range between 0.05–0.4 nm^−1, and errors were propagated from the single SAXS curves (see Supplementary Figure S1).
# [3] = Mueller-Hinton broth + 2% glucose, 6 × 10^5 CFU/ml C. albicans clinical isolate, read by unaided eye, n = 3, modal values
# [4] = 6 × 10^5 CFU/mL, PCA range 0.05–0.4 nm^−1
compound,measurement,setting,value
VNWKKILGKIIKVVK-NH2 [Lasioglossin LL-III],MIC,C. albicans [1]; [3],36 µM
same,hemolytic and cytotoxic activity,"erythrocytes; ref Cerovsky et al., 2009",low
INLKAIAALAKKLL-NH2 [Mastoparan M],MIC,C. albicans [1]; [3],22 µM
same,hemolytic activity,"erythrocytes; ref Hirai et al., 1981",very little
FIGAIARLLSKIFGKR-NH2 [Bmkn2],MIC,C. albicans [1]; [3],18 µM
same,HC50 (hemolysis),"erythrocytes; ref Cao et al., 2012, Almaaytah and Albalas, 2014",17.13 µg/mL
KRRVRWIIW-NH2 [OptP7],MIC,C. albicans [1]; [3],24 µM
same,HC50 (hemolysis),human erythrocytes,> 250 µg/mL
KWKLFKKIGAVLKVL-NH2,MIC,C. albicans [1]; [3],18 µM
same,hemolytic activity,sheep erythrocytes,> 500 µg/mL
Nc1[nH]c(=O)ncc1F [Flucytosine],MIC,"C. albicans [1]; Candida albicans, MHb + 2% glucose, 6 × 10^5 CFU/mL C. albicans clinical isolate, read-out: MIC",8 µg/mL
same,"PC1 value, rank in the set of six antifungal compounds",C. albicans [2],second-lowest
same,PC2 value compared to the untreated cells (direction),C. albicans [2],increased
same,"PC2 value, rank in the set of six antifungal compounds",C. albicans [2],highest
same,"ΔPC1 (treated versus untreated), sign",C. albicans [2],positive
same,increase of PC2 versus untreated sample,C. albicans [2]; [4],about 1 unit
same,reduction of PC1 versus untreated sample,C. albicans [2]; [4],about 6 units
